# Reference: the supplement of paper PMC11208160
# Test: recombinant barcode read abundance after kanamycin selection (control-corrected) (log10(CPM+1)); higher = more efficient recombination; sequences stand for … in AGTGCAGAGAAAATCGGCCAGTTTTCTCTGCCTGCAGTCCGCATGCCGT…ATTTATGCAGCGGACTGCCTTTCTCCCAAAGTGATAAACCGGACAGTATCATGGACCGGTTTTCCCGGTAATCCGTATTTGCAAGGTTGGTTTCACT; site = the 11-nt target
# In short: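 The screen was pooled in E. coli and paired targets with IS621 bridge RNA target-binding loops. Recombination efficiency is taken from barcode counts per million at recombinant junctions, averaged and adjusted against the control. Values, in the form log10(CPM+1), come from duplicate plating on chloramphenicol/ampicillin LB agar or on chloramphenicol/ampicillin/kanamycin with 0.1 mM IPTG.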
sequence,measurement,value
"GTCGCCCTGTGGGTTCTAACCTGTTGCTAAG [GTCGCCCCTTA_LTGcore_TG_RTGcore_CT] (site GTCGCCCCTTA) (LTG core: TG, RTG core: CT)",recombinant barcode read abundance (log10),0.405
"TAAGAATACTGGGTTCTAACCTGTTGCCTAG [TAAGAATCTAG_LTGcore_AC_RTGcore_CT] (site TAAGAATCTAG) (LTG core: AC, RTG core: CT)",recombinant barcode read abundance (log10),0.0833
"TAAGAATCCTGGGTTCTAACCTGTTGCCTGG [TAAGAATCTAG_LTGcore_CC_RTGcore_CC] (site TAAGAATCTAG) (LTG core: CC, RTG core: CC)",recombinant barcode read abundance (log10),0.0748
"TAAGAATCGTGGGTTCTAACCTGTTGCCTAG [TAAGAATCTAG_LTGcore_CG_RTGcore_CT] (site TAAGAATCTAG) (LTG core: CG, RTG core: CT)",recombinant barcode read abundance (log10),0.349
"TAAGAATCTTGGGTTCTAACCTGTTGCCTGG [TAAGAATCTAG_LTGcore_CT_RTGcore_CC] (site TAAGAATCTAG) (LTG core: CT, RTG core: CC)",recombinant barcode read abundance (log10),0.39
"TAAGAATCTTGGGTTCTAACCTGTTGCCTTG [TAAGAATCTAG_LTGcore_CT_RTGcore_CA] (site TAAGAATCTAG) (LTG core: CT, RTG core: CA)",recombinant barcode read abundance (log10),0.89
"TAAGAATGTTGGGTTCTAACCTGTTGCCTAC [TAAGAATCTAG_LTGcore_GT_RTGcore_GT] (site TAAGAATCTAG) (LTG core: GT, RTG core: GT)",recombinant barcode read abundance (log10),0.128
"TAAGAATGTTGGGTTCTAACCTGTTGCCTAG [TAAGAATCTAG_LTGcore_GT_RTGcore_CT] (site TAAGAATCTAG) (LTG core: GT, RTG core: CT)",recombinant barcode read abundance (log10),0.127
"TAAGAATTATGGGTTCTAACCTGTTGCCTTA [TAAGAATCTAG_LTGcore_TA_RTGcore_TA] (site TAAGAATCTAG) (LTG core: TA, RTG core: TA)",recombinant barcode read abundance (log10),0.111
"TAGAGGGAGTGGGTTCTAACCTGTTGCGGAG [TAGAGGGCTCC_LTGcore_AG_RTGcore_CT] (site TAGAGGGCTCC) (LTG core: AG, RTG core: CT)",recombinant barcode read abundance (log10),0.0663
"TAGAGGGAGTGGGTTCTAACCTGTTGCGGCT [TAGAGGGCTCC_LTGcore_AG_RTGcore_AG] (site TAGAGGGCTCC) (LTG core: AG, RTG core: AG)",recombinant barcode read abundance (log10),0.0923
"TAGAGGGCATGGGTTCTAACCTGTTGCGGAG [TAGAGGGCTCC_LTGcore_CA_RTGcore_CT] (site TAGAGGGCTCC) (LTG core: CA, RTG core: CT)",recombinant barcode read abundance (log10),2.42
"TAGAGGGCCTGGGTTCTAACCTGTTGCGGGG [TAGAGGGCTCC_LTGcore_CC_RTGcore_CC] (site TAGAGGGCTCC) (LTG core: CC, RTG core: CC)",recombinant barcode read abundance (log10),0.132
"TAGAGGGCGTGGGTTCTAACCTGTTGCGGCG [TAGAGGGCTCC_LTGcore_CG_RTGcore_CG] (site TAGAGGGCTCC) (LTG core: CG, RTG core: CG)",recombinant barcode read abundance (log10),0.0165
"TAGAGGGCTTGGGTTCTAACCTGTTGCGGAA [TAGAGGGCTCC_LTGcore_CT_RTGcore_TT] (site TAGAGGGCTCC) (LTG core: CT, RTG core: TT)",recombinant barcode read abundance (log10),0.746
"TAGAGGGCTTGGGTTCTAACCTGTTGCGGAC [TAGAGGGCTCC_LTGcore_CT_RTGcore_GT] (site TAGAGGGCTCC) (LTG core: CT, RTG core: GT)",recombinant barcode read abundance (log10),1.38
"TAGAGGGCTTGGGTTCTAACCTGTTGCGGCT [TAGAGGGCTCC_LTGcore_CT_RTGcore_AG] (site TAGAGGGCTCC) (LTG core: CT, RTG core: AG)",recombinant barcode read abundance (log10),0.623
"TAGAGGGCTTGGGTTCTAACCTGTTGCGGTG [TAGAGGGCTCC_LTGcore_CT_RTGcore_CA] (site TAGAGGGCTCC) (LTG core: CT, RTG core: CA)",recombinant barcode read abundance (log10),0.438
"TAGAGGGGGTGGGTTCTAACCTGTTGCGGAG [TAGAGGGCTCC_LTGcore_GG_RTGcore_CT] (site TAGAGGGCTCC) (LTG core: GG, RTG core: CT)",recombinant barcode read abundance (log10),0.0671
"TAGAGGGGGTGGGTTCTAACCTGTTGCGGCC [TAGAGGGCTCC_LTGcore_GG_RTGcore_GG] (site TAGAGGGCTCC) (LTG core: GG, RTG core: GG)",recombinant barcode read abundance (log10),0.114
"TAGAGGGTCTGGGTTCTAACCTGTTGCGGGA [TAGAGGGCTCC_LTGcore_TC_RTGcore_TC] (site TAGAGGGCTCC) (LTG core: TC, RTG core: TC)",recombinant barcode read abundance (log10),0.0922
"TAGAGGGTGTGGGTTCTAACCTGTTGCGGAG [TAGAGGGCTCC_LTGcore_TG_RTGcore_CT] (site TAGAGGGCTCC) (LTG core: TG, RTG core: CT)",recombinant barcode read abundance (log10),0.173
"TAGAGGGTTTGGGTTCTAACCTGTTGCGGAA [TAGAGGGCTCC_LTGcore_TT_RTGcore_TT] (site TAGAGGGCTCC) (LTG core: TT, RTG core: TT)",recombinant barcode read abundance (log10),0.0961
"TAGAGGGTTTGGGTTCTAACCTGTTGCGGAG [TAGAGGGCTCC_LTGcore_TT_RTGcore_CT] (site TAGAGGGCTCC) (LTG core: TT, RTG core: CT)",recombinant barcode read abundance (log10),0.949
"TCGCGACAATGGGTTCTAACCTGTTGCCGAG [TCGCGACCTCG_LTGcore_AA_RTGcore_CT] (site TCGCGACCTCG) (LTG core: AA, RTG core: CT)",recombinant barcode read abundance (log10),0.0505
"TCGCGACAATGGGTTCTAACCTGTTGCCGTT [TCGCGACCTCG_LTGcore_AA_RTGcore_AA] (site TCGCGACCTCG) (LTG core: AA, RTG core: AA)",recombinant barcode read abundance (log10),0.176
"TCGCGACACTGGGTTCTAACCTGTTGCCGAG [TCGCGACCTCG_LTGcore_AC_RTGcore_CT] (site TCGCGACCTCG) (LTG core: AC, RTG core: CT)",recombinant barcode read abundance (log10),0.0715
"TCGCGACCGTGGGTTCTAACCTGTTGCCGAG [TCGCGACCTCG_LTGcore_CG_RTGcore_CT] (site TCGCGACCTCG) (LTG core: CG, RTG core: CT)",recombinant barcode read abundance (log10),0.392
"TCGCGACCTTGGGTTCTAACCTGTTGCCGAT [TCGCGACCTCG_LTGcore_CT_RTGcore_AT] (site TCGCGACCTCG) (LTG core: CT, RTG core: AT)",recombinant barcode read abundance (log10),0.514
"TCGCGACCTTGGGTTCTAACCTGTTGCCGCA [TCGCGACCTCG_LTGcore_CT_RTGcore_TG] (site TCGCGACCTCG) (LTG core: CT, RTG core: TG)",recombinant barcode read abundance (log10),0.072
"TCGCGACCTTGGGTTCTAACCTGTTGCCGCT [TCGCGACCTCG_LTGcore_CT_RTGcore_AG] (site TCGCGACCTCG) (LTG core: CT, RTG core: AG)",recombinant barcode read abundance (log10),0.0581
"TCGCGACCTTGGGTTCTAACCTGTTGCCGGG [TCGCGACCTCG_LTGcore_CT_RTGcore_CC] (site TCGCGACCTCG) (LTG core: CT, RTG core: CC)",recombinant barcode read abundance (log10),0.283
"TCGCGACCTTGGGTTCTAACCTGTTGCCGGT [TCGCGACCTCG_LTGcore_CT_RTGcore_AC] (site TCGCGACCTCG) (LTG core: CT, RTG core: AC)",recombinant barcode read abundance (log10),0.129
"TCGCGACCTTGGGTTCTAACCTGTTGCCGTC [TCGCGACCTCG_LTGcore_CT_RTGcore_GA] (site TCGCGACCTCG) (LTG core: CT, RTG core: GA)",recombinant barcode read abundance (log10),0.204
